Compound: T1, C[C@H]1CNCCN1c1nccc(-c2noc3c2CCC[C@@]32CCCc3sc(N)c(C#N)c32)n1 [BI-2493]
Assay: 1 - AUC of viability dose-response curve (sensitivity) (fraction); higher = more sensitive
Details: 5 days
Procedure: (§1)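 PRISM pooled barcoded cancer cell line viability screen (Broad Institute) with BI-2493 at 8 doses in threefold dilutions from 0.00457 to 10 µmol/L, 5-day treatment; curves fitted per cell line. IC50 is undefined (placeholder) for resistant lines. AUC is capped at 1, and sensitivity is reported as 1 − AUC.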

Test System	1 - AUC of viability dose-response curve
8MGBA_CENTRAL_NERVOUS_SYSTEM	0.0867
LN464_CENTRAL_NERVOUS_SYSTEM	0.0968
JVM3_HAEMATOPOIETIC_AND_LYMPHOID_TISSUE	0.105
SW954_CERVIX	0.117
EWS502_BONE	0.177
RT112_URINARY_TRACT	0.281
FADU_UPPER_AERODIGESTIVE_TRACT	0.102
A498_KIDNEY	0.113
NP2_CENTRAL_NERVOUS_SYSTEM	0.085
COLO800_SKIN	0.0454
GCT_SOFT_TISSUE	0.0856
HKA1_SKIN	0.111
H103_UPPER_AERODIGESTIVE_TRACT	0.0476
TE6_OESOPHAGUS	0.0969
A172_CENTRAL_NERVOUS_SYSTEM	0.178
KOSC2CL343_UPPER_AERODIGESTIVE_TRACT	0.0719
SUSA_TESTIS	0.243
G415_BILIARY_TRACT	0.245
HEL_HAEMATOPOIETIC_AND_LYMPHOID_TISSUE	0.255
ASPC1_PANCREAS	0.32
SNU423_LIVER	0.152
UPCISCC111_UPPER_AERODIGESTIVE_TRACT	0.158
SW1710_URINARY_TRACT	0.0685
RH28_SOFT_TISSUE	0.0907

Test System	1 - AUC of viability dose-response curve
HS766T_PANCREAS	0.108
HT1080_SOFT_TISSUE	0.209
UPCISCC116_UPPER_AERODIGESTIVE_TRACT	0.118
TE11_OESOPHAGUS	0.102
HPBALL_HAEMATOPOIETIC_AND_LYMPHOID_TISSUE	0.0862
UMRC3_KIDNEY	0.106
U87MG_CENTRAL_NERVOUS_SYSTEM	0.111
NCIH1341_LUNG	0.146
PMFKO14_LARGE_INTESTINE	0.106
LI7_LIVER	0.213
EW8_BONE	0.0935
SKNSH_AUTONOMIC_GANGLIA	0.25
HUH1_LIVER	0.0866
TT_OESOPHAGUS	0.191
A549_LUNG	0.207
GAMG_CENTRAL_NERVOUS_SYSTEM	0.0333
647V_URINARY_TRACT	0.0938
NCIH1339_LUNG	0.0455
GP5D_LARGE_INTESTINE	0.0606
TTC442_SOFT_TISSUE	0.0621
NCIH1435_LUNG	0.0748
HEC59_ENDOMETRIUM	0.025
OE19_OESOPHAGUS	0.168
SUDHL8_HAEMATOPOIETIC_AND_LYMPHOID_TISSUE	0.0165

Test System	1 - AUC of viability dose-response curve
TE15_OESOPHAGUS	0.381
A1207_CENTRAL_NERVOUS_SYSTEM	0.179
BICR22_UPPER_AERODIGESTIVE_TRACT	0.137
LN229_CENTRAL_NERVOUS_SYSTEM	0.0706
HEC1A_ENDOMETRIUM	0.136
KYSE270_OESOPHAGUS	0.113
HEYA8_OVARY	0.117
MON_SOFT_TISSUE	0.163
NCCIT_TESTIS	0.192
OCIC5X_OVARY	0.0098
DMS79_LUNG	0.0188
K029AX_SKIN	0.058
SKLMS1_SOFT_TISSUE	0.0071
HEC108_ENDOMETRIUM	0.123
T3M5_THYROID	0.162
CHLA06ATRT_SOFT_TISSUE	0.141
MDAPCA2B_PROSTATE	0.118
NCIH747_LARGE_INTESTINE	0.384
CORL88_LUNG	0.143
SNU761_LIVER	0.297
OVK18_OVARY	0.228
RL_HAEMATOPOIETIC_AND_LYMPHOID_TISSUE	0.0967
ACHN_KIDNEY	0.133
94T778_SOFT_TISSUE	0.112

Test System	1 - AUC of viability dose-response curve
BECKER_CENTRAL_NERVOUS_SYSTEM	0.00973
SNU81_LARGE_INTESTINE	0.129
NUGC3_STOMACH	0.236
NCIH446_LUNG	0.216
JHOM1_OVARY	0.119
PK1_PANCREAS	0.131
YAPC_PANCREAS	0.287
HCC4006_LUNG	0.233
769P_KIDNEY	0.0662
1777NRPMET_TESTIS	0.0116
ONDA9_CENTRAL_NERVOUS_SYSTEM	0.0973
CASKI_CERVIX	0.0572
COLO741_SKIN	0.00696
HOS_BONE	0.0734
P12ICHIKAWA_HAEMATOPOIETIC_AND_LYMPHOID_TISSUE	0.121
LS180_LARGE_INTESTINE	0.244
HS852T_SKIN	0.00841
CW2_LARGE_INTESTINE	0.071
93T449_SOFT_TISSUE	0.0121
HCC2108_LUNG	0.0106
HGC27_STOMACH	0.158
STM9101_SOFT_TISSUE	0.0387
SKGT4_OESOPHAGUS	0.403
PK8_PANCREAS	0.161

Compound: T1, BI-2493
Assay: not given
Details: 5 days
Procedure: as §1

Test System	IC50 of cell viability
8MGBA_CENTRAL_NERVOUS_SYSTEM	6.11 µM
LN464_CENTRAL_NERVOUS_SYSTEM	4.83 µM
JVM3_HAEMATOPOIETIC_AND_LYMPHOID_TISSUE	9.45 µM
SW954_CERVIX	3.72 µM
EWS502_BONE	3.56 µM
RT112_URINARY_TRACT	1.22 µM
FADU_UPPER_AERODIGESTIVE_TRACT	6.09 µM
A498_KIDNEY	5.88 µM
NP2_CENTRAL_NERVOUS_SYSTEM	9.05 µM
COLO800_SKIN	7.65 µM
GCT_SOFT_TISSUE	6.05 µM
HKA1_SKIN	4 µM
H103_UPPER_AERODIGESTIVE_TRACT	7.57 µM
TE6_OESOPHAGUS	4.43 µM
A172_CENTRAL_NERVOUS_SYSTEM	4.33 µM
KOSC2CL343_UPPER_AERODIGESTIVE_TRACT	5.69 µM
SUSA_TESTIS	1.09 µM
G415_BILIARY_TRACT	2.22 µM
HEL_HAEMATOPOIETIC_AND_LYMPHOID_TISSUE	4.89 µM
ASPC1_PANCREAS	2.11 µM
SNU423_LIVER	3.81 µM
UPCISCC111_UPPER_AERODIGESTIVE_TRACT	4.12 µM
SW1710_URINARY_TRACT	7.21 µM
RH28_SOFT_TISSUE	5.97 µM

Test System	IC50 of cell viability
HS766T_PANCREAS	6.84 µM
HT1080_SOFT_TISSUE	3.19 µM
UPCISCC116_UPPER_AERODIGESTIVE_TRACT	5.74 µM
TE11_OESOPHAGUS	4.31 µM
HPBALL_HAEMATOPOIETIC_AND_LYMPHOID_TISSUE	4.23 µM
UMRC3_KIDNEY	4.74 µM
U87MG_CENTRAL_NERVOUS_SYSTEM	> 10 µM
NCIH1341_LUNG	> 10 µM
PMFKO14_LARGE_INTESTINE	7.87 µM
LI7_LIVER	1.52 µM
EW8_BONE	4.5 µM
SKNSH_AUTONOMIC_GANGLIA	> 10 µM
HUH1_LIVER	4.85 µM
TT_OESOPHAGUS	5.9 µM
A549_LUNG	2.17 µM
GAMG_CENTRAL_NERVOUS_SYSTEM	8.24 µM
647V_URINARY_TRACT	7.05 µM
NCIH1339_LUNG	6.82 µM
GP5D_LARGE_INTESTINE	> 10 µM
TTC442_SOFT_TISSUE	5.84 µM
NCIH1435_LUNG	4.95 µM
HEC59_ENDOMETRIUM	9.3 µM
OE19_OESOPHAGUS	4.24 µM
SUDHL8_HAEMATOPOIETIC_AND_LYMPHOID_TISSUE	9.1 µM

Test System	IC50 of cell viability
TE15_OESOPHAGUS	0.153 µM
A1207_CENTRAL_NERVOUS_SYSTEM	7.21 µM
BICR22_UPPER_AERODIGESTIVE_TRACT	4.66 µM
LN229_CENTRAL_NERVOUS_SYSTEM	8.48 µM
HEC1A_ENDOMETRIUM	3.64 µM
KYSE270_OESOPHAGUS	5.56 µM
HEYA8_OVARY	3.57 µM
MON_SOFT_TISSUE	2.57 µM
NCCIT_TESTIS	0.878 µM
OCIC5X_OVARY	9.57 µM
DMS79_LUNG	> 10 µM
K029AX_SKIN	7.21 µM
SKLMS1_SOFT_TISSUE	9.65 µM
HEC108_ENDOMETRIUM	5.68 µM
T3M5_THYROID	4.56 µM
CHLA06ATRT_SOFT_TISSUE	7.12 µM
MDAPCA2B_PROSTATE	> 10 µM
NCIH747_LARGE_INTESTINE	0.323 µM
CORL88_LUNG	4.54 µM
SNU761_LIVER	2.4 µM
OVK18_OVARY	1.81 µM
RL_HAEMATOPOIETIC_AND_LYMPHOID_TISSUE	4.21 µM
ACHN_KIDNEY	6.46 µM
94T778_SOFT_TISSUE	5.6 µM

Test System	IC50 of cell viability
BECKER_CENTRAL_NERVOUS_SYSTEM	9.55 µM
SNU81_LARGE_INTESTINE	9.39 µM
NUGC3_STOMACH	2.68 µM
NCIH446_LUNG	4.06 µM
JHOM1_OVARY	4.83 µM
PK1_PANCREAS	6.81 µM
YAPC_PANCREAS	2.97 µM
HCC4006_LUNG	> 10 µM
769P_KIDNEY	6.88 µM
1777NRPMET_TESTIS	9.43 µM
ONDA9_CENTRAL_NERVOUS_SYSTEM	5.1 µM
CASKI_CERVIX	8.68 µM
COLO741_SKIN	9.66 µM
HOS_BONE	7.39 µM
P12ICHIKAWA_HAEMATOPOIETIC_AND_LYMPHOID_TISSUE	3.63 µM
LS180_LARGE_INTESTINE	1.08 µM
HS852T_SKIN	9.99 µM
CW2_LARGE_INTESTINE	8.55 µM
93T449_SOFT_TISSUE	9.31 µM
HCC2108_LUNG	9.5 µM
HGC27_STOMACH	3.92 µM
STM9101_SOFT_TISSUE	> 10 µM
SKGT4_OESOPHAGUS	0.494 µM
PK8_PANCREAS	2.17 µM

Reference: the supplement of paper PMC11962398
